Experiments:
TEM-1 = target: T1, TEM-1 (Escherichia coli, UniProt P62593); test: thermal denaturation with right-angle/static light scattering (aggregation) in presence of beta-lactamase inhibitors; format: biochemical, E. coli
T1 construct: DNA TEM (870 bp) or SHV (894 bp) were each sub-cloned into a PUC57 vector cloning site NdeI/XhoI; His-tag (N); TEV cleavage site (N); made in house; host or cells: E. coli BL21 (DE3)
From the text: (FIG. 1E) Heat denaturation of TEM-1 monitored by intrinsic fluorescence plotted as the BaryCentric Mean (BCM) of the fluorescence emission spectrum in the presence (red) and absence (blue) of tazobactam. […] (FIG. 1F) Temperature-dependent evolution of the Right-Angle Light Scattering (RALS) intensity measured simultaneously with the data in FIG. 1G to monitor protein aggregation. […] (FIGS. 1G, 1H, 1I, and 1J) Same data as in FIG. 1F, but showing a dose-titration of different beta-lactamase inhibitors: tazobactam (FIG. 1G), clavulanate (FIG. 1H), vaborbactam (FIG. 1I) and avibactam (FIG. 1J). Each curve a single experiment, which was repeated in triplicate.
Then, we performed a thermal denaturation whilst simultaneously monitoring the intrinsic fluorescence as a measure of the folding status of the molecule (FIG. 1E), and the static light scattering as a measure of aggregation (FIG. 1F).

E. coli strain UZ_TEM104 = format: cell-based; conditions: additive at fixed 50 μg/mL
[1] = tested on: uro-pathogenic E. coli strain (UPEC strain blaTEM-1); test: mouse Urinary Tract Infection (UTI) model; format: in vivo; conditions: 30 mg/kg ampicillin plus 10 mg/kg test substance; 24 h
Description: FIGS. 4A-4K. […] IV—Intravenous, IP—Intraperitoneal, SC—Subcutaneously. The data shown is from a single experiment with 4 animals per group. […] (ns—non significant, #—P>0.05, *—P≤0.05, ***—P≤0.01, ****—P≤0.001). (FIG. 4G) FICI plot as in FIG. 2, for the E. coli strains indicated and the combination of penicillin and the TEM3.2 peptide. […] (FIG. 4J) Same as FIG. 4H for peptide BGAL. (FIG. 4K) Same as FIG. 4H for peptide P33.
Vehicle alone (0.9% NaCl) was also administered (IV).
To test the efficacy of the peptides, urinary tract infection model was performed as described previously^65. Briefly, female C57BL/6Jax mice female mice were deprived from water for at least one hour. […] Mice were slowly inoculated urethrally with 50 μL of a bacterial suspension slowly (10^8 CFU/mouse) using a sterile catheter (The plastic intravenous cannula of the paediatric intravenous-access cannula (GS391350) in the bladder over 5 s in order to avoid vesicoureteral reflux. The catheter was then removed directly after inoculation. After surgery, the animals were visually monitored for full recovery. After 1 h post-inoculation, all mice received ampicillin (30 mg/kg_PO-orally) and at the same time 3 groups of animals received the peptides via different administration routes (10mg/kg_IV—Intravenous; IP—Intraperitoneal or SC—sub-cutaneous) and the positive control groups received tazobactam (10 mg/Kg, PO). […]

SHV-11 = target: T2, SHV-11 (Klebsiella pneumoniae, UniProt P0AD64); test: thermal denaturation with light scattering (aggregation) in presence of excess tazobactam; format: biochemical; conditions: SHV-11, excess of tazobactam
T2 construct: DNA TEM (870 bp) or SHV (894 bp) were each sub-cloned into a PUC57 vector cloning site NdeI/XhoI; His-tag (N); TEV cleavage site (N); made in house; host or cells: E. coli BL21 (DE3)

[2] = tested on: TEM variants (TEM15, TEM30, TEM52, TEM10, TEM155); test: aggregation (RALS temperature ramp) of recombinant TEM variants in presence and absence of tazobactam; format: biochemical; conditions: presence versus absence of tazobactam
From the text: FIGS. 2A-2M. (FIG. 2A) TEM mutations and their effects on stability (total energy) as predicted by FoldX. […] Dashed line indicates a total energy difference of 0.5 kcal/mol, the FoldX cut-off above which mutations are considered to be destabilizing. (FIG. 2B) Barplot mapping mutations in (FIG. 2A) to the TEM sequence and indicating occurrence. […] The bar heights correspond to the number of times a mutation occurs across different TEM variants (right-hand y-axis). The color coding is identical to that in (FIG. 2A). Red line indicates the TANGO scores (indicated on the left-hand y-axis), with peaks corresponding to APRs. (FIG. 2C) Mapping of mutations in (FIG. 2A) and (FIG. 2B) to the TEM structure (pdb 1xpb). Protein surface is shown in gray, color coding of mutations is identical to (FIG. 2A) and (FIG. 2B). (FIGS. 2D, 2E, and 2F) Temperature-dependent evolution of the Right-Angle Light Scattering (RALS) intensity during a temperature ramp, similar as in FIG. 1F for key mutants of TEM1, namely TEM-10 (FIG. 2D), TEM-30 (FIG. 2E) and TEM-155 (FIG. 2F). Experiments were shown in triplicate, single repeat is shown. (FIG. 2G) Schematic representation of the structure of the peptides. APR—Aggregation Prone Region, R—Arginine. (FIG. 2H) Ribbon representation of the superposition of the crystal structures of TEM (green, pdb id 1bt5) and SHV (blue, pdb id 1shv). […]

T1 sequence (P62593 24-286 limits assumed): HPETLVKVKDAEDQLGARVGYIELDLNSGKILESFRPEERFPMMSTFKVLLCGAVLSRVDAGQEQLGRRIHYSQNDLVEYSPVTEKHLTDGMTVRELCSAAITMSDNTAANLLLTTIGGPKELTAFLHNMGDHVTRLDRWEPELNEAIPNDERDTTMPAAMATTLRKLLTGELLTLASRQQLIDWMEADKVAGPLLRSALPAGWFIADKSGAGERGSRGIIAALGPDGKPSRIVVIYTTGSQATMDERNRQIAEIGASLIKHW
T2 sequence (P0AD64 22-286 L31Q): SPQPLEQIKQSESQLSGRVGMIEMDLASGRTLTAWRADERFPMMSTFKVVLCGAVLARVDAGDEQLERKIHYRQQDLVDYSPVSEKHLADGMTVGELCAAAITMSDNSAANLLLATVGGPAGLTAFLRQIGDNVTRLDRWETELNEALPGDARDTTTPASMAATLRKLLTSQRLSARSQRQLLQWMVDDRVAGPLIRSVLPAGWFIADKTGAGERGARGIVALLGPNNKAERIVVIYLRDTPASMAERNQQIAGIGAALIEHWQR

## C[C@]1(Cn2ccnn2)[C@H](C(=O)O)N2C(=O)C[C@H]2S1(=O)=O [tazobactam]
TEM-1; TEM-1, dose titration of inhibitor
  aggregation of the enzyme (static light scattering), dose-response: reduce the aggregation of the enzyme in a dose-responsive manner
TEM-1; TEM-1, excess of tazobactam, more marked than for SHV-11
  aggregation onset temperature Tagg: increase
E. coli strain UZ_TEM104
  reduction of the MIC of penicillin G: 4 fold
[1]
  best reduction of the bacterial load (up to): 1.8 log folds
SHV-11
  aggregation onset temperature Tagg: increase
[2]
  effect of tazobactam on aggregation of TEM variants: pharmacological chaperone effect

Reference: patent publication US20240165196A1, “Beta-Lactamase Inhibitors” (VIB VZW, priority 2021, published 2024)
